From US5958940A, “Tricyclic compounds useful as inhibitors of farnesyl-protein transferase” (Schering Corporation, priority 1997, dated 1999)

Biological target: T1, farnesyl protein transferase (Rattus norvegicus, UniProt Q02293+Q04631)
T1 construct: partially purified rat brain farnesyl protein transferase (FPT); from tissue; host or cells: rat brain, partially purified
Assay: FPT inhibition, in vitro enzyme assay (Ras-CVLS farnesylation by partially purified rat brain FPT)
Format: biochemical

Row | SMILES | inhibition at 0.3 µM (@0.3 μM) [%] | inhibition at 0.1 µM (@0.1 μM) [%]
1 | O=C(NCc1cccnc1)[C@@H]1CCCN1C1c2ncc(Br)cc2CCc2cc(Cl)cc(Br)c21 (single isomer, unassigned) [Example 2 Isomer A, 1-(3,10-dibromo-8-chloro-6,11-dihydro-5H-benzo[5,6]cyclohepta[1,2-b]pyridine-11-yl)-N-(3-pyridinylmethyl)-2-pyrrolidine carboxamide] | 15 | –
2 | O=C(NCc1cccnc1)[C@@H]1CCN1C1c2ccc(Cl)cc2CCc2cc(Br)cnc21 (single isomer, unassigned) [Example 3 Isomer B, 1-(3-bromo-8-chloro-6,11-dihydro-5H-benzo[5,6]cyclohepta[1,2-b]pyridine-11-yl)-N-(3-pyridinylmethyl)2-azetidine carboxamide] | – | 17
